Reference: patent publication US20070037833A1, “Compositions and methods for inhibiting neurodegeneration” (priority 2005, published 2007)
Entries after “also recorded” stand apart in the source; their conditions may differ.

How the values were obtained:
Type in all cases: cell-based, rat
MAP kinase = test: Immunoblot for phosphoMAPK in spinal cord cultures
Description: (§1) Cells were lysed in 1% NP-40 lysis buffers containing protease inhibitors, subjected to SDS-PAGE and immunoblotted as previously described (Fryer et al., 1999; Fryer et al., 2000). For immunoprecipitation, lysates from 60 mm dishes were pre-cleared by incubation with protein A beads (Santa Cruz), incubated with primary antibody (4 μg/ml)×2 hours then 50 μL of beads added and incubated overnight with gentle agitation at 4° C. Beads were pelleted, washed 5× with 10 mM Tris pH 7.4+0.5 mM EGTA+0.5 mM EDTA+0.1% NP40 before elution in 1× Laemelli sample buffer. Antibody sources: BD Transduction Labs—TrkB and MAP Kinase used at 1:500, Cell Signaling—Akt 1:1000; phosphoTrk (tyr490) 1:1000; phospho p42/44 MAP Kinase (thr 202/tyr204) 1:1000; phosphoAkt (ser473) 1:500; IGFI antibody (tyr 1131) 1:500. Upstate—adenosine A2a 1:1000. Sigma—actin 1:200. Biosource—active src (clone 28) 1:200.
We next asked about the effect of the adenosine A2 receptor antagonism on Trk signaling. Cultures of spinal cord cells (grown in the presence of a cocktail of trophic factors including 10 ng/ml BDNF) received KW6002 (1 μM), MRS1754 (50 nM) or vehicle (DMSO 0.1%) and 24 hrs. later, lysates were prepared for immunoblots for Trk and the MAP kinase downstream signaling module (FIG. 2, panel a). Immunoblots for phosphoTrk and phosphoMAPK were employed to monitor the state of activation of these proteins.
We followed up these observations by determining the effect of enprofylline on Trk signaling and determined the extent to which the resultant biochemical changes mimic the effects of direct pharmacological Trk antagonism with CEP4416. […] The effect of drug treatment on AKT was particularly marked. […] To determine the specificity of these agents, we examined their effect on Insulin-like growth factor 1 (IGF1) signaling through the IGF receptor tyrosine kinase (IGFR). […] It is unlikely that phosphodiesterase activity of enprofylline can explain these observations as increased cAMP levels enhance, not suppress, TrkB activation (Boulanger and Poo, 1999; Ji et al., 2005).

src-family kinases (SFK) = test: Immunoblot for active SFKs (clone 28 antibody) in spinal cord cultures; details: 24 hours treatment
Description: as §1
The precise mechanism by which G-protein coupled receptors trans-activate receptor tyrosine kinases is complex and to some extent receptor-subtype specific (Luttrell et al., 1999; Downward, 2003; Piiper and Zeuzem, 2004; Waters et al., 2004). […] If this pathway was operative in spinal cord neurons, then antagonism of adenosine A2a receptors might lead to reduced src activation and antagonism of SFKs might be neuro-protective. Src is negatively regulated by phosphorylation of tyrosine 529 (refers to human src sequence) and an antibody that recognizes a de-phospho epitope in this region (“clone 28”) is a reliable measure of active src and SFKs (Kawakatsu et al., 1996). We began by asking for adenosine A2a receptors and active SFKs are present in the same cells and if so, their subcellular distribution. Pure motor neurons, grown in the presence of BDNF were immunostained with a rabbit anti-adenosine A2a receptor and the clone 28 antibody. One hundred percent of motor neurons expressed both antigens and on dendrites, the immunoreactivity formed discrete fine puncta (FIG. 5a). Many, but not all, puncta were stained with both antibodies. […]

Akt = test: Immunoblot for phosphoAKT in spinal cord cultures
[1] = test system: motor neurons expressing G85R SOD; test: Motor neuron death from HSV-expressed mutant SOD in spinal cord cultures; details: 6 days post-infection; treatment daily or every other day
Text: (§2) Various cDNAs were cloned into the PrpUC amplicon plasmid and were used to generate recombinant HSV as previously described (Neve et al., 1997). The titer of viruses used in these studies were routinely 3-5×10^7 plaque-forming units/ml. The cDNA for wild type/mutant SOD and wild type/mutant p150^glued were gifts of D. Borchelt and E. Holzbaur, respectively. The K295R mutant version of chick src was a gift of J. Brugge.
(§3) Mutations in superoxide dismutase (SOD) or the p150^glued subunit of dynactin are known to account for a familial form of ALS in a subpopulation of individuals (Rosen, 1993; Puls et al., 2003; Bruijn et al., 2004). We inquired whether expression the mutant forms of SOD or p150^glued caused motor neuron death in vitro and if Trk antagonism was neuroprotective. Recombinant herpes simplex viruses (HSVs) were generated that expressed wild type or mutant form of SOD (G85R) and wild type or mutant p150^glued (G59S). […] Spinal cord cultures were infected with virus at 14 DIV and the number of motor neurons was determined 2, 4, 6 or 8 days later (FIG. 4, panel a.).
(§4) We next determined if KW6002 could protect motor neurons from the toxic effects of mutant proteins. Spinal cord cultures were infected with viruses expressing wild type or mutant versions of SOD or p150^glued at 14 DIV, then treated with drug or vehicle for 4 days (FIG. 4, panel b.). […]

[2] = test system: motor neurons expressing G59S p150^glued; test: Motor neuron death from HSV-expressed mutant p150glued in spinal cord cultures; details: 6 days post-infection; treatment daily or every other day
Text: as §2, §3, §4

[3] = 6 and 24 hours, 100 μM enprofylline, 30 nM CEP-4416
[4] = 6 hours post drug administration
[5] = 48 hours post drug administration

CCCn1c(=O)[nH]c(=O)c2[nH]cnc21 [enprofylline, 3-propylxanthine]
abundance of phosphoMAPK (MAP kinase; [3]): decrease in the abundance of phosphoAKT and phosphoMAPK at 6 and 24 hours
phosphorylation of MAP kinase (MAP kinase; [4]): decreases in the phosphorylation of Trk, MAP kinase and Akt
abundance of phosphoMAPK (MAP kinase; 24 hours treatment): robust reduction in phosphoTrk, phosphoMAPK and phosphoAKT
phosphorylation of MAPK (MAP kinase; [5]): largely returned to baseline
abundance of active SFKs (src-family kinases (SFK)): reduced
abundance of active SFKs (src-family kinases (SFK); listed as Enprofylline): caused a reduction in the abundance of active SFKs
abundance of phosphoAKT (Akt; [3]): decrease in the abundance of phosphoAKT and phosphoMAPK at 6 and 24 hours
phosphorylation of Akt (Akt; [4]): decreases in the phosphorylation of Trk, MAP kinase and Akt
abundance of phosphoAKT (Akt; 24 hours post drug administration): robust reduction in phosphoTrk, phosphoMAPK and phosphoAKT
abundance of phosphoAKT (Akt; [5]): remained depressed
motor neuron survival / toxicity of G85R SOD [1]: significantly greater number of motor neurons; also recorded: completely prevented the toxicity of mutant protein expression
motor neuron survival / toxicity of G59S p150glued [2]: significantly greater number of motor neurons; also recorded: completely prevented the toxicity of mutant protein expression
